Tests used:
[1] = target: T1, Aminopeptidase N (Sus scrofa, UniProt P15145); test: Aminopeptidase N assay; format: biochemical; conditions: read-out: % inhibition of the catalytic activity of the enzyme
T1 construct: purchased Sigma Aldrich
T1 sequence (P15145 1-963): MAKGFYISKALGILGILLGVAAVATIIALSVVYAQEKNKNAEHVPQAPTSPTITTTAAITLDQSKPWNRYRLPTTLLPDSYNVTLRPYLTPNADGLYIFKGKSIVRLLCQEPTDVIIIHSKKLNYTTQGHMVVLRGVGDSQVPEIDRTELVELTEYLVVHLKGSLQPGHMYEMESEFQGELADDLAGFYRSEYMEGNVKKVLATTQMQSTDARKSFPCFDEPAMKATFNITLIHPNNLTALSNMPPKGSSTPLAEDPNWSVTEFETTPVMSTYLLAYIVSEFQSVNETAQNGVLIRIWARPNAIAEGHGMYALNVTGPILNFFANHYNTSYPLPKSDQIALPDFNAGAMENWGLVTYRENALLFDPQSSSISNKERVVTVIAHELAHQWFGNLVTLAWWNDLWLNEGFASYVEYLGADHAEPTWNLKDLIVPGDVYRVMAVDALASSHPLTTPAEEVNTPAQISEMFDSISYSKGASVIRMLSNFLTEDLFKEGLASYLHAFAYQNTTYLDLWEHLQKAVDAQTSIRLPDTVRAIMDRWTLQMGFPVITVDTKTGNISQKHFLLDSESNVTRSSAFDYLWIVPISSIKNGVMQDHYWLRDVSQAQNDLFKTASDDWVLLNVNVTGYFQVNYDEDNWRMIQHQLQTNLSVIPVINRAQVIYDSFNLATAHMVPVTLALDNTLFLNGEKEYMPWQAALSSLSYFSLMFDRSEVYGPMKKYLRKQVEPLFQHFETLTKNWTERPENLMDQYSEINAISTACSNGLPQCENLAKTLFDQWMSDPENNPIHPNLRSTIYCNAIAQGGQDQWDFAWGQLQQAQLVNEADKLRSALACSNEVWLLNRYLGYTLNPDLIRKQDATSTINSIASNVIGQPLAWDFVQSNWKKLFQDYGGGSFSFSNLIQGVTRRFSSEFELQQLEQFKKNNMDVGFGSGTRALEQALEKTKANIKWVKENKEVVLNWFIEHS
Method: Aminopeptidase N assay. 5 mU of aminopeptidase M (Sigma Aldrich) was incubated with 100 μM of substrate alanine-β-naphthylamide (Sigma Aldrich) in Tris buffered saline (50 mM Tris-HCl, 150 mM NaCl pH 7.5) at 25° C. IRAP inhibitors (1-10 μM) were added after 1 minute and fluorescence at 405 nm was followed.
(§1) Limited inhibition of control enzymes was observed.

[2] = target: T2, Recombinant human LTA4H (Homo sapiens, UniProt P09960); test: Leukotriene A4 hydrolase assay; format: biochemical; conditions: read-out: % inhibition of the catalytic activity of the enzyme
T2 construct: purchased Cayman Chemicals
T2 sequence (P09960 1-611): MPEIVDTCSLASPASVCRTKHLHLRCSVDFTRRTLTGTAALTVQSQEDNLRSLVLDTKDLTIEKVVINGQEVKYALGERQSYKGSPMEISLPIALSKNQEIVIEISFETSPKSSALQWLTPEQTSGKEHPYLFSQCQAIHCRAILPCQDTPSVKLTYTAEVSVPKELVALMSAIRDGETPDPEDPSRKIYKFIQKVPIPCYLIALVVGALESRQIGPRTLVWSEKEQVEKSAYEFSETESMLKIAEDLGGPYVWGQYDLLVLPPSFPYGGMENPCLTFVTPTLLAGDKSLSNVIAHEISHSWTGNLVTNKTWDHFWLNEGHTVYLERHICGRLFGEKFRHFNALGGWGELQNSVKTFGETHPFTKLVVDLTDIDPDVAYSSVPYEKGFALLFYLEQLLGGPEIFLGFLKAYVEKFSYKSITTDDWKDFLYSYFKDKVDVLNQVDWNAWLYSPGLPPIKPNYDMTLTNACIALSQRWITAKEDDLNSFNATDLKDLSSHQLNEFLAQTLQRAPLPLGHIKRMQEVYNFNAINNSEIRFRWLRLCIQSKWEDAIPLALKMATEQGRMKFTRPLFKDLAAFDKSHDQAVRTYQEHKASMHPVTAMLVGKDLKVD
Method: Leukotriene A4 hydrolase assay. Recombinant human LTA4H (Cayman Chemicals Michigan USA) (1-20 μg) was incubated at room temperature with alanine-p-nitroanilide as substrate in 50 mM Tris-HCl buffer, pH 8.0, containing 100 mM KCl with or without increasing concentrations of an inhibitor. The absorbance at 405 nm was measured at 10 min intervals.
as §1

[3] = system: Glucose-6-phosphate dehydrogenase/glucose hexokinase; test: Glucose-6-phosphate dehydrogenase and hexokinase activity, fluorimetric assay; conditions: 100 μM
Method: Glucose-6-phosphate dehydrogenase and hexokinase activity. Glucose-6-phosphate dehydrogenase and hexokinase activity in the absence and presence of the compounds was determined in a fluorimetric assay. Ten mM Tris MgCl2 buffer (total volume of 200 ml) containing glucose-6-phosphate dehydrogenase, 0.3M ATP, 30 mM NADP+ was added to 96 well microtitre plate together with 20 μl of compound, a reading at excitation 350 nm and emission 510 nm was taken followed by the addition of hexokinase and another reading.

[4] = target: Angiotensin converting enzyme 1 (Homo sapiens, UniProt P12821); test: Angiotensin converting enzyme assay; format: biochemical; conditions: read-out: % inhibition of the catalytic activity of the enzyme
Sequence of Angiotensin converting enzyme 1 (P12821 30-1306): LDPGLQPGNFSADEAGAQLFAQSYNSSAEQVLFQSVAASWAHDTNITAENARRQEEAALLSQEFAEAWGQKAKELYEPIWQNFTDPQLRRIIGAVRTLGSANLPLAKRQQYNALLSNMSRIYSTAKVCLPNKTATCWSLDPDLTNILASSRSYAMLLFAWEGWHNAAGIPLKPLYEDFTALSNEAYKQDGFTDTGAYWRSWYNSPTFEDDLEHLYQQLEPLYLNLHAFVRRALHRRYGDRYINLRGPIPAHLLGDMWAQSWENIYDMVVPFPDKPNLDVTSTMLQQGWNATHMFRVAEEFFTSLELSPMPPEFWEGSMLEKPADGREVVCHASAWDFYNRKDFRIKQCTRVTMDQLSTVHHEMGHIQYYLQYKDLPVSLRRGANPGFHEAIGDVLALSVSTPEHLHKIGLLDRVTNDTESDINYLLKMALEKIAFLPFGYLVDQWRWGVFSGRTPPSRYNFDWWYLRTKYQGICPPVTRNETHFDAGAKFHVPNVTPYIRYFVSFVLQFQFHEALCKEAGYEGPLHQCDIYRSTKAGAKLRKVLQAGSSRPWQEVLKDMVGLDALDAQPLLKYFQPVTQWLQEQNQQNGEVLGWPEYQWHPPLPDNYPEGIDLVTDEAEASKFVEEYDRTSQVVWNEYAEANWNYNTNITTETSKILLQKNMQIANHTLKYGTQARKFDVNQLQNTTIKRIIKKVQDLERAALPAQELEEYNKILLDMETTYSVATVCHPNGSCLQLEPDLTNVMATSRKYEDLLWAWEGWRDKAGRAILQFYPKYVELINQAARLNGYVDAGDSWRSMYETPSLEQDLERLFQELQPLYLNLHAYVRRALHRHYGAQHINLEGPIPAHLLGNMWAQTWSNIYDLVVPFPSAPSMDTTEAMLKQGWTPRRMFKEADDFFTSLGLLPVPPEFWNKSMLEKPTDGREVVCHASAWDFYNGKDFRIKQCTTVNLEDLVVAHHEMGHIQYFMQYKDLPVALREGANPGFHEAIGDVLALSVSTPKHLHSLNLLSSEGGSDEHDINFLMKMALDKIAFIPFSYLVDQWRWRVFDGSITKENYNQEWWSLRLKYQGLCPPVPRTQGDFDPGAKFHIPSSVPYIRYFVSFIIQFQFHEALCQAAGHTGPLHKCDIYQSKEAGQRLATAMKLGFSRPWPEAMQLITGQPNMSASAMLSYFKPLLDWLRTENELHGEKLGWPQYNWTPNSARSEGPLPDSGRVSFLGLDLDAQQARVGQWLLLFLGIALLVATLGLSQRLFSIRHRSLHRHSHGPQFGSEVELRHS
Method: Angiotensin converting enzyme assay. The enzyme (final concentration 0.02 pmol/100 L) was incubated with 200 μL of assay solution that included 5 mmol/L HHL in 100 mmol/L potassium buffer (pH 8.3) that contained 300 mmol/L NaCl and 10^−4 mol/L ZnSO4 for 3 hours at 37° C. The enzymatic reaction was stopped by the addition of 1.5 mL of 0.28N NaOH, 100 μL of o-phthaldialdehyde (20 mg/mL) in methanol was added and the fluorescent reaction stopped by the addition of 200 μL of 3N HCl. The product, L-His-Leu, was measured fluorometrically (360 nm excitation and 500 nm emission).
as §1

[5] = target: T3, IRAP (Homo sapiens, UniProt Q9UIQ6); test: IRAP enzymatic assay (hydrolysis of Leu-MCA); format: biochemical; conditions: substrate Leu-MCA, solubilized membranes of HEK 293T cells transfected with IRAP
T3 construct: expressed in transfected cells; host or cells: HEK 293T
T3 sequence (Q9UIQ6 whole entry): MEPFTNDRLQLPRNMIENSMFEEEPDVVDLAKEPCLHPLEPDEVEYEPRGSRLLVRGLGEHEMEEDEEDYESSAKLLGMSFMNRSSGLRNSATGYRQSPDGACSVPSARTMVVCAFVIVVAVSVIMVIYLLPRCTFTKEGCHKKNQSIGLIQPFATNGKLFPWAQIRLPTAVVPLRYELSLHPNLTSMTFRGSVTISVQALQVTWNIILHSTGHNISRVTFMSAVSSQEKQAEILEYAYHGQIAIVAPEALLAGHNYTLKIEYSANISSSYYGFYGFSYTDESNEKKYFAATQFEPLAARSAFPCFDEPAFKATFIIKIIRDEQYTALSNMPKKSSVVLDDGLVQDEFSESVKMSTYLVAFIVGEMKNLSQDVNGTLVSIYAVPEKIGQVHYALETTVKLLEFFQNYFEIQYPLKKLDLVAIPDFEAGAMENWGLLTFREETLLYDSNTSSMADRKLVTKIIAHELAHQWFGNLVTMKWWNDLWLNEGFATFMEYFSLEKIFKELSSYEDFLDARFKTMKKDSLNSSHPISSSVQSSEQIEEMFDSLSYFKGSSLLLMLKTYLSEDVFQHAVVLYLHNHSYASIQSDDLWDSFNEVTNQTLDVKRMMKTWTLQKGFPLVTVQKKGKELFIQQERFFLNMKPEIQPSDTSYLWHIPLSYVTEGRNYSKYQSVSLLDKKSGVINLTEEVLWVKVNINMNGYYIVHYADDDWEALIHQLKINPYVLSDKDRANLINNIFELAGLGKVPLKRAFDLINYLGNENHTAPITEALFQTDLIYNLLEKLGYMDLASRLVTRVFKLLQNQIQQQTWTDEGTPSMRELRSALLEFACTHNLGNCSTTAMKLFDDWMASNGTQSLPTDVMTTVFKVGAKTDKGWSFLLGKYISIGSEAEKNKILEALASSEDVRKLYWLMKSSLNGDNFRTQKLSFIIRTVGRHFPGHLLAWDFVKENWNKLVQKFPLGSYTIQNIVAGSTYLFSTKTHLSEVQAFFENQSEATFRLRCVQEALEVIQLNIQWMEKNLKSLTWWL
Method: An in vitro enzymatic assay was used to initially assess IRAP inhibitory activity.
After solubilization, the membranes were pelleted by centrifugation at 23,100 g for 15 min at 4° C., and the supernatant was reserved as the source of IRAP activity. The enzymatic activities of IRAP were determined by the hydrolysis of the synthetic substrate Leu-MCA (Sigma-Aldrich, Missouri, USA) monitored by the release of a fluorogenic product, MCA, at excitation and emission wavelengths of 380 and 440 nm, respectively. Assays were performed in 96-well plates; each well contains between […] solubilized membrane protein, a range of concentration of substrate in a final volume of 100 μL 50 mM Tris-HCl buffer (pH 7.4). Non-specific hydrolysis of the substrate was corrected by subtracting the emission from incubations with membranes transfected with empty vector. Reactions proceeded at 37° C. for 30 min within a thermostatted FLEX station fluorescence microplate reader (Molecular Devices, Sunnyvale, Calif.). […] Km values of IRAP for Leu-MCA were determined from the kinetic studies. […] All data obtained were from at least three separate experiments performed in duplicate.

SMILES	inhibition at 10 µM [1]	inhibition at 100 µM [2]	% inhibition of the catalytic activity of the enzyme [3]	inhibition at 10 µM [4]	inhibition at 100 µM [4]	IC50 [5]	Ki ([5]; calculated from IC50=Ki(1+[S]/Km), read-out: K1)	inhibition at 100 µM ([1]; 100 μM)	inhibition at 10 µM ([2]; 10 μM)
CCOC(=O)C1=C(N)Oc2cc(O)ccc2C1c1cnc2ccccc2c1 (stereo not shown) [Compound 3, Ethyl 2-amino-7-hydroxy-4-quinolin-3-yl-4H-chromene-3-carboxylate]	12%	4%	0%	0%	3%				
CCOC(=O)C1=C(N)Oc2cc(O)ccc2C1c1cccnc1 (stereo not shown) [reference compound]						3000 nM	2000 nM		
CCOC(=O)C1=C(NC(C)=O)Oc2cc(O)ccc2C1c1cnc2ccccc2c1 (stereo not shown) [Compound 4, Ethyl 2-(acetylamino)-7-hydroxy-4-quinolin-3-yl-4H-chromene-3-carboxylate]	3%	25%		0%	0%			14%	0%

Reference: patent publication US8377963B2, “Insulin-regulated aminopeptidase (IRAP) inhibitors and uses thereof” (Howard Florey Institute, priority 2007, dated 2013)
